Key:
Type in all cases: in vivo
Duckweed = test: Copper salt stress in duckweed, dry weight; details: fifteen days of growth
cabbage plants = test: Heat stress in cabbage, fresh weight; details: CaNO3 2500 ppm alone
[1] = tested on: Roundup Ready cotton seeds; test: Cold-induced inhibition of cotton seed germination; details: for number of cotton seeds germinated / Fresh Wt.: 300 ppm each component; for Fresh Wt.: seedlings harvested 17 days after planting

O.O.O.O.O.O=S(=O)([O-])[O-].[Cu+2] [Copper, CuSo4SH2O]
Average Dry Weight (mg) ± SD (Duckweed; Copper 1.7 ppm): 18.0 ± 4.7 mg | % Change From Control (Duckweed; Copper 3.3 ppm): −70% | Average Dry Weight (mg) ± SD (Duckweed; Copper 3.3 ppm): 8.3 ± 0.7 mg

O=[N+]([O-])[O-].O=[N+]([O-])[O-].[Ca+2] [CaNO3, calcium nitrate]
Mean Fresh Weight (g) ± SD (cabbage plants; oven at 48° C. (118° F.) for twelve hours, weighed one week later): 28.8 ± 5.6 g | % of Room Temperature Control (cabbage plants; oven at 48° C. for twelve hours): 77% | number of cotton seeds germinated ([1]; 5 days after planting, 59° F. (15° C.)/50° F. (10° C.), 45 seeds): 0 | number of cotton seeds germinated ([1]; 5 days after planting, 75° F. (24° C.), 45 seeds per treatment): 9 | number of cotton seeds germinated ([1]; 7 days after planting, 59° F. (15° C.)/50° F. (10° C.), 45 seeds): 0 | number of cotton seeds germinated ([1]; 7 days after planting, 75° F. (24° C.), 45 seeds): 38 | number of cotton seeds germinated ([1]; 9 days after planting, 59° F. (15° C.)/50° F. (10° C.), 45 seeds): 6 | number of cotton seeds germinated ([1]; 9 days after planting, 75° F. (24° C.), 45 seeds): 41 | seeds germinated, % of all seeds ([1]; 9 days after planting, low temperatures, 45 seeds per treatment): 13% | number of cotton seeds germinated ([1]; 13 days after planting, 59° F. (15° C.)/50° F. (10° C.), 45 seeds): 23 | number of cotton seeds germinated ([1]; 13 days after planting, 75° F. (24° C.), 45 seeds): 42 | number of cotton seeds germinated ([1]; 17 days after planting, 59° F. (15° C.)/50° F. (10° C.), 45 seeds): 31 | number of cotton seeds germinated ([1]; 17 days after planting, 75° F. (24° C.), 45 seeds): 43 | Fresh Wt. ([1]; 59° F. (15° C.)/50° F. (10° C.)): 4.01 g | Fresh Wt. ([1]; 75° F. (24° C.)): 8.70 g

From US6534446B1, “Method to mitigate plant stress” (Emerald BioAgriculture Corporation, priority 1994, dated 2003)
